Biological target: T1, HIV-Protease (Human immunodeficiency virus type 1 group M subtype B, UniProt P04585)
T1 construct: Max-Planck-Institut für Molekulare Genetik, Berlin
Experiment: HIV protease test (cleavage of heptapeptide Ser-Phe-Asn-Phe-Pro-Gln-Ile, HPLC quantification of Ser-Phe-Asn-Phe)
Type: biochemical
Details: 2 h, 37°C; for IC50: cloned HIV protease, pH ca. 6,0; for activity at 100 µM / Restakt. bei 10^-4 M: residual enzyme activity at 10^-4 M inhibitor, 100 % = mean of runs without inhibitor, pH ca. 6,0, 1 % DMSO; for activity at 100 µM: read-out: Restakt. bei 10^-4 M; for Restakt. bei 10^-4 M: 100 µM
Source text: Als synthetisches Substrat ist ein Heptapeptid der Sequenz Ser-Phe-Asn-Phe-Pro-Gln-Ile geeignet. Diese Sequenz tritt im natürlichen Substrat der Protease auf und liefert bei der autokatalytischen Freisetzung nach einer Phe-Pro-Spaltung den N-terminalen Beginn der Proteasesequenz (Pro-Gln-Ile...).
Es wird eine klonierte HIV-Protease (Max-Planck-Institut für Molekulare Genetik, Berlin) benutzt. [drawing 5]
Von den Reaktionsprodukten wird Ser-Phe-Asn-Phe zur Abtrennung und quantitativen Bestimmung mittels HPLC herangezogen.
Nach 2 Stunden bei 37°C werden die Ansätze mit 225 µl HPLC-Elutionsmittel (s.u.) gestoppt. Etwa 150 µl des zentrifugierten Überstands (Eppendorf-Zentrifuge) werden in Mikrovials gefüllt. Das Injektionsvolumen für die HPLC-Trennung beträgt 20 µl. Ser-Phe-Asn-Phe wird durch Vergleich mit einem externen Standard bekannter Konzentration (0,5 µg/ 20 µl) quantitativ bestimmt und stellt die Meßgröße der Enzymaktivität (µg Tetrapeptid pro 20 µl Meßprobe) dar. Bezugswert (= 100 % Enzymaktivität) ist der Mittelwert aus 2 oder mehr Ansätzen ohne Inhibitor. Als Standard-Inhibitor wird Pepstatin A (10⁻⁴ oder 10⁻⁵ M) verwendet.
• a) Substratlösung: 2 mg Ser-Phe-Asn-Phe-Pro-Gln-Ile werden in 1 ml MGTE 15-Puffer gelöst. • b) Testsubstanzen: Diese werden 10⁻² oder 10⁻³ M in Dimethylsulfoxid (DMSO) gelöst und 1 : 40 mit MGTE 15-Puffer verdünnt; 10 µl dieser Lösung werden pro Ansatz verwendet; die Endkonzentration des Präparates beträgt 10⁻⁴ bzw. 10⁻⁵ M; die DMSO-Konzentration in allen Testansätzen ist 1 %. Für IC₅₀-Bestimmungen wird das Präparat, ausgehend von 10⁻² M, mit 100 % DMSO in der geeigneten Weise verdünnt. • c) Proteaselösung: Das Enzym wird mit MGTE 25-Puffer auf eine geeignete Konzentration verdünnt. • d) MGTE 15/25-Puffer 20 mM Morpholinoethansulfonsäure (MES) 15 (25) % (w/v) Glyzerin 0,1 % (v/v) Triton® X 100 (vgl. Merck Index 10, 6601) 5 mM EDTA 0,5 M NaCl 1 mM Dithiothreit (nur für MGTE 25) 1 mM Phenylmethylsulfonylfluorid (PMSF) Der pH-Wert soll ca. 6,0 betragen. • e) HPLC-Elutionsmittel: Eine 0,1 M Phosphorsäure-Lösung wird mit Triethylamin auf pH 2,5 eingestellt. Aus dieser Lösung wird ein Phosphorsäure-Acetonitril-Gemisch mit 22,6 Gewichts-Prozent Acetonitril hergestellt.
Säule: Radial Pak LC Cartridge, 8 mm/C18, 5 µ (der Fa. Waters, USA). Fluß: 1 ml/min Detektoreinstellung: 215 nm, 0,08 AU Zeit pro Analyse: 12 min; Retentionszeiten: Heptapeptid ca. 9,5 min, Tetrapeptid ca. 5,2 min Laufmittel: 77,4 Gew.-% 0,1 M H₃PO₄/pH 2,5 22,6 Gew.-% Acetonitril

IC50 [µM]	activity at 100 µM [%]	Restakt. bei 10^-4 M [%]	Molecule
40	45	–	CCC[C@H](NC(=O)C(Cc1ccccc1)CS(=O)(=O)C(C)(C)C)C(=O)NC(B1OC(C)(C)C(C)(C)O1)C1CCCCCC1 (stereo partly shown) [Beispiel 46]
10	10	–	CC1(C)OB(C(CC2CCCCC2)NC(=O)[C@H](CC(N)=O)NC(=O)C(Cc2cccc3ccccc23)CS(=O)(=O)C(C)(C)C)OC1(C)C (stereo partly shown) [Beispiel 53, [3-t-Butylsulfonyl,2-(1-naphthylmethyl)]propionyl-Asn-[cyclohexylmethyl,(4,4,5,5-tetramethyl-1,3,2-dioxaborolan-2-yl)]methylamid]
–	96	–	CCC[C@H](NC(=O)[C@H](Cc1ccccc1)NC(=O)CC(C)C)C(=O)NC(CC1CCCCCCC1)B1OC(C)(C)C(C)(C)O1 (stereo partly shown) [Beispiel 11]
–	77	–	CCC[C@H](NC(=O)[C@H](Cc1ccccc1)NC(=O)CC(C)C)C(=O)NC(Cc1cccc2ccccc12)B1OC(C)(C)C(C)(C)O1 (stereo partly drawn) [Beispiel 10, Iva-Phe-Nva-[(1-Naphthylmethyl),(4,4,5,5-tetramethyl-1,3,2-dioxaborolan-2-yl)]methylamid]
–	–	27	Iva-Phe-Nva-(Cyclooctylmethyl,dihydroxyboryl)methylamid [Beispiel 20]
–	64	–	CCCC(NC(=O)C(Cc1ccccc1)NC(=O)CC(C)C)C(=O)NC(CC1CCCCC1)B1OC2CC3CC(C3(C)C)C2(C)O1 (stereo not drawn) [Beispiel 12, Iva-Phe-Nva-[Cyclohexylmethyl, (-)-Pinandioxyboryl]methylamid]
–	–	59	[3-t-Butylsulfonyl,2,(2-thienylmethyl)]propionyl-Thi-(Cyclohexylmethyl,dihydroxyboryl)methylamid [Beispiel 31]
5	5	–	CC(C)[C@H](NC(=O)C(Cc1cccc2ccccc12)CS(=O)(=O)C(C)(C)C)C(=O)NC(CC1CCCCC1)B1OC(C)(C)C(C)(C)O1 (stereo partly shown) [Beispiel 51, [3-t-Butylsulfonyl, 2-(1-naphthylmethyl)]propionyl-Val-[cyclohexylmethyl,(4,4,5,5-tetramethyl-1,3,2-dioxaborolan-2-yl)]methylamid]
9	11	–	CC(C)[C@H](NC(=O)C(Cc1ccccc1)CS(=O)(=O)C(C)(C)C)C(=O)NC(CC1CCCCC1)B1OC(C)(C)C(C)(C)O1 (stereo partly shown) [Beispiel 38, (2-Benzyl,3-t-butylsulfonyl)propionyl-Val-[Cyclohexylmethyl,(4,4,5,5-tetramethyl-1,3,2-dioxaborolan-2-yl)]methylamid]
200	52	–	CC(C)CC(=O)N[C@@H](Cc1ccccc1)C(=O)N[C@@H](Cc1c[nH]cn1)C(=O)NC(CC1CCCCCCC1)B1OC(C)(C)C(C)(C)O1 (stereo partly drawn) [Beispiel 17, Iva-Phe-His-[Cyclooctylmethyl,(4,4,5,5-tetramethyl-1,3,2-dioxaborolan-2-yl)]methylamid]
–	–	78	Iva-Phe-His-(Cyclooctylmethyl,dihydroxyboryl)methylamid [Beispiel 24]
100	49	–	CC1(C)OB(C(CC2CCCCC2)NC(=O)[C@H](CC(N)=O)NC(=O)C(Cc2cccs2)CS(=O)(=O)C(C)(C)C)OC1(C)C (stereo partly shown) [Beispiel 52, [3-t-Butylsulfonyl, 2-(2-thienylmethyl)]propionyl-Asn-[cyclohexylmethyl,(4,4,5,5-tetramethyl-1,3,2-dioxaborolan-2-yl)]-methylamid]
–	46	–	CCC[C@H](NC(=O)C(Cc1ccccc1)CS(=O)(=O)C(C)(C)C)C(=O)NC(CC(CC)CC)B1OC(C)(C)C(C)(C)O1 (stereo partly shown) [Beispiel 49, (2-Benzyl,3-t-butylsulfonyl)propionyl-Nva-[3-Ethyl,1-(4,4,5,5-tetramethyl-1,3,2-dioxaborolan-2-yl)]pentylamid]
40	–	25	(2-Benzyl,3-t-butylsulfonyl)propionyl-Nva-(Cyclopentylmethyl,dihydroxyboryl)methylamid [Beispiel 32]
7	–	7	(2-Benzyl,3-t-butylsulfonyl)propionyl-Val-(Cyclohexylmethyl,dihydroxyboryl)methylamid [Beispiel 28]
–	96	–	CC(C)CC(=O)N[C@@H](Cc1cccs1)C(=O)N[C@@H](Cc1c[nH]cn1)C(=O)NC(CC1CCCCC1)B1OC(C)(C)C(C)(C)O1 (stereo partly shown) [Beispiel 4]
40	28	–	CCC[C@H](NC(=O)[C@H](Cc1ccccc1)NC(=O)CC(C)C)C(=O)NC(CC1CCCCC1)B1OC(C)(C)C(C)(C)O1 (stereo partly drawn) [Beispiel 1, Iva-Phe-Nva-[Cyclohexylmethyl,(4,4,5,5-tetramethyl-1,3,2-dioxaborolan-2-yl)]methylamid]
–	53	–	CCC[C@H](NC(=O)C(Cc1ccccc1)CS(=O)(=O)C(C)(C)C)C(=O)NC(B1OC(C)(C)C(C)(C)O1)C(C)CC (stereo partly shown) [Beispiel 50, (2-Benzyl,3-t-butylsulfonyl)propionyl-Nva-[2-Methyl,1-(4,4,5,5-tetramethyl-1,3,2-dioxaborolan-2-yl)]butylamid]
–	70	–	CC(C)CC(=O)N[C@@H](Cc1ccccc1)C(=O)N(C)[C@@H](Cc1ccccc1)C(=O)NC(CC1CCCCC1)B1OC(C)(C)C(C)(C)O1 (stereo partly shown) [Beispiel 16]
70	–	38	Iva-Phe-Nva-(Cyclohexylmethyl,dihydroxyboryl)methylamid [Beispiel 5]
–	74	–	CCCC[C@H](NC(=O)[C@H](Cc1ccccc1)NC(=O)CC(C)C)C(=O)NC(CC1CCCCC1)B1OC(C)(C)C(C)(C)O1 (stereo partly drawn) [Beispiel 2, Iva-Phe-Nle-[Cyclohexylmethyl,(4,4,5,5-tetramethyl-1,3,2-dioxaborolan-2-yl)]methylamid]
–	37	–	CC(C)CC(NC(=O)[C@H](Cc1c[nH]cn1)NC(=O)C(Cc1cccc2ccccc12)Cc1cccc2ccccc12)B1OC(C)(C)C(C)(C)O1 (stereo partly drawn) [Beispiel 19, Bis-(1-Naphthylmethyl)acetyl-His-[3-methyl,l-(4,4,5,5-tetramethyl-1,3,2-dioxaborolan-2-yl)]butylamid]
100	49	–	CC1(C)OB(C(Cc2ccccc2)NC(=O)[C@H](CC(N)=O)NC(=O)C(Cc2ccccc2)CS(=O)(=O)C(C)(C)C)OC1(C)C (stereo partly shown) [Beispiel 45, (2-Benzyl,3-t-butylsulfonyl)propionyl-Asn-[Benzyl,(4,4,5,5-tetramethyl-1,3,2-dioxaborolan-2-yl)]methylamid]
–	35	–	CCC[C@H](NC(=O)C(Cc1cccc2ccccc12)CS(=O)(=O)C(C)(C)C)C(=O)NC(CC(C)C)B1OC(C)(C)C(C)(C)O1 (stereo partly shown) [Beispiel 41, [3-t-Butylsulfonyl,2-(1-naphthylmethyl)]propionyl-Nva-[3-methyl,1-(4,4,5,5-tetramethyl-1,3,2-dioxaborolan-2-yl)]butylamid]
–	46	–	CCC[C@H](NC(=O)C(Cc1cccs1)CS(=O)(=O)C(C)(C)C)C(=O)NC(CC1CCCCCC1)B1OC(C)(C)C(C)(C)O1 (stereo partly shown) [Beispiel 40, [3-t-Butylsulfonyl,2-(2-thienylmethyl)]propionyl-Nva-[Cycloheptylmethyl,(4,4,5,5-tetramethyl-1,3,2-dioxaborolan-2-yl)]methylamid]
–	–	52	[3-t-Butylsulfonyl,2-(2-thienylmethyl)]propionyl-Nva-(Cyclohexylmethyl,dihydroxyboryl)methylamid [Beispiel 30]
–	36	–	CC(C)CC(=O)N[C@@H](Cc1ccccc1)C(=O)N[C@@H](Cc1c[nH]cn1)C(=O)NC(CC1CCCCCC1)B1OC(C)(C)C(C)(C)O1 (stereo partly drawn) [Beispiel 18, Iva-Phe-His-[Cycloheptylmethyl,(4,4,5,5-tetramethyl-1,3,2-dioxaborolan-2-yl)]methylamid]
–	72	–	CCC[C@H](NC(=O)C(Cc1ccccc1)CS(=O)(=O)C(C)(C)C)C(=O)NC(Cc1ccccc1)B1OC(C)(C)C(C)(C)O1 (stereo partly shown) [Beispiel 44]
–	–	41	Iva-Phe-Nva-[Cyclohexylmethyl,[(N-B)-(2,2′-iminodiethanolato)-boryl]]methylamid [Beispiel 6]

Reference: patent EP0354522A1, “Use of alpha-aminoboronic acid derivatives in prevention and treatement of viral diseases” (HOECHST AKTIENGESELLSCHAFT, priority 1988, dated 1990)
